ChEMBL document CHEMBL1144235, “Aminostyrylbenzofuran derivatives as potent inhibitors for Abeta fibril formation” (Bioorg Med Chem Lett, 2008)
pIC50: −log10 of the molar value.

Target: Amyloid-beta precursor protein (Homo sapiens, UniProt P05067)
Experiment: Inhibition of amyloid beta42 fibril formation by thioflavin T formation

Sequence of Amyloid-beta precursor protein (P05067 whole entry): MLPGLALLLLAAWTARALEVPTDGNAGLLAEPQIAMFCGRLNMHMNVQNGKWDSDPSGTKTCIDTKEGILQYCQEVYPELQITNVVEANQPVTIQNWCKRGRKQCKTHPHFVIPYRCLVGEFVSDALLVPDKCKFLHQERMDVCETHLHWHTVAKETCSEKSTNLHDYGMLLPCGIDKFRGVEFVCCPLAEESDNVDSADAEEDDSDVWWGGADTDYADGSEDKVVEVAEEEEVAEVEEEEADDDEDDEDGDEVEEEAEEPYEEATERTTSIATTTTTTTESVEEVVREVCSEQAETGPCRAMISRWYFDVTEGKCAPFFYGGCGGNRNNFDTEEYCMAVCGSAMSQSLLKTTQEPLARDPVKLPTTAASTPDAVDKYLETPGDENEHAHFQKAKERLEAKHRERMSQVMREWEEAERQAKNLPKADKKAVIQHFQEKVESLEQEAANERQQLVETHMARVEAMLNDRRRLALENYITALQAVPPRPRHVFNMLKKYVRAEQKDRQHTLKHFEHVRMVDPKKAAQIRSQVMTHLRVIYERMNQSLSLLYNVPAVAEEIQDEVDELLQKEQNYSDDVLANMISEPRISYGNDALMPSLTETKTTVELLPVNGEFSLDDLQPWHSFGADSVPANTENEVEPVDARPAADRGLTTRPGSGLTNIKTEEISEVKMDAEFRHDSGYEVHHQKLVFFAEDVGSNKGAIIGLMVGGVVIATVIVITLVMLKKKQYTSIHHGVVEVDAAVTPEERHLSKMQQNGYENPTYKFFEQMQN

| Structure (SMILES) | pIC50 |
| --- | --- |
| CN(C)c1ccc(/C=C/c2cc3ccc(O)cc3o2)cc1 | 5.44 |
| Nc1ccc(/C=C/c2cc3cc(O)ccc3o2)cc1 | 5.53 |
| CN(C)c1ccc(/C=C/c2cc3cc(Cl)ccc3o2)cc1 | 6.70 |
| COc1ccc2oc(/C=C/c3ccc(N(C)C)c(OC)c3)cc2c1 | 6.80 |
| CN(C)c1ccc(/C=C/c2cc3cc(F)ccc3o2)cc1 | 5.70 |
| CN(C)c1ccc(/C=C/c2cc3cc(Br)ccc3o2)cc1 | 6.33 |
| CNc1ccc(/C=C/c2cc3ccc(OC)cc3o2)cc1 | 6.10 |
| CN(C)c1ccc(/C=C/c2cc3ccc(Cl)cc3o2)cc1 | 5.49 |
| CN(C)c1ccc(/C=C/c2cc3ccc(Br)cc3o2)cc1 | 5.87 |
| COc1ccc2cc(/C=C/c3ccc(N)cc3)oc2c1 | 5.26 |
| CNc1ccc(/C=C/c2cc3cc(O)ccc3o2)cc1 | 5.67 |
| CN(C)c1ccc(/C=C/c2cc3cc(O)ccc3o2)cc1 | 6.80 |
| Cc1ccc2cc(/C=C/c3ccc(N(C)C)cc3)oc2c1 | 5.46 |
| CN(C)c1ccc(/C=C/c2cc3ccc(F)cc3o2)cc1 | 5.66 |
| CN(C)c1ccc(/C=C/c2cc3ccc(I)cc3o2)cc1 | 5.55 |
| COc1ccc2oc(/C=C/c3ccc(N)cc3)cc2c1 | 6.09 |
| CN(C)c1ccc(/C=C/c2cc3ccccc3o2)cc1 | 5.64 |
| COc1ccc2oc(/C=C/c3ccc(N(C)C)cc3)cc2c1 | 6.09 |
| Cc1ccc2oc(/C=C/c3ccc(N(C)C)cc3)cc2c1 | 6.89 |
| COc1ccc2cc(/C=C/c3ccc(N(C)C)c(OC)c3)oc2c1 | 6.28 |
| CNc1ccc(/C=C/c2cc3cc(OC)ccc3o2)cc1 | 7.10 |
| CN(C)c1ccc(/C=C/c2cc3cc(I)ccc3o2)cc1 | 6.77 |
| COc1ccc2cc(/C=C/c3ccc(N(C)C)cc3)oc2c1 | 7.15 |
